Laboratory results published in ChEMBL document CHEMBL3991601, “The target landscape of clinical kinase drugs” (Science, 2017).
Calls of active or inactive are those of the source. Rule as the data show it, for most assays here: actives have a measured Kd and inactives only a lower limit.

How the values were obtained:
[1] = target: Cyclin-dependent kinase 3 (Homo sapiens, UniProt Q00526)
[2] = target: Serine/threonine-protein kinase B-raf (Homo sapiens, UniProt P15056)
[3] = target: Rho-associated protein kinase 1 (Homo sapiens, UniProt Q13464)
Ephrin type-A receptor 4 = Ephrin type-A receptor 4 (Homo sapiens, UniProt P54764)
Chain of Ephrin type-A receptor 4 (P54764 whole entry): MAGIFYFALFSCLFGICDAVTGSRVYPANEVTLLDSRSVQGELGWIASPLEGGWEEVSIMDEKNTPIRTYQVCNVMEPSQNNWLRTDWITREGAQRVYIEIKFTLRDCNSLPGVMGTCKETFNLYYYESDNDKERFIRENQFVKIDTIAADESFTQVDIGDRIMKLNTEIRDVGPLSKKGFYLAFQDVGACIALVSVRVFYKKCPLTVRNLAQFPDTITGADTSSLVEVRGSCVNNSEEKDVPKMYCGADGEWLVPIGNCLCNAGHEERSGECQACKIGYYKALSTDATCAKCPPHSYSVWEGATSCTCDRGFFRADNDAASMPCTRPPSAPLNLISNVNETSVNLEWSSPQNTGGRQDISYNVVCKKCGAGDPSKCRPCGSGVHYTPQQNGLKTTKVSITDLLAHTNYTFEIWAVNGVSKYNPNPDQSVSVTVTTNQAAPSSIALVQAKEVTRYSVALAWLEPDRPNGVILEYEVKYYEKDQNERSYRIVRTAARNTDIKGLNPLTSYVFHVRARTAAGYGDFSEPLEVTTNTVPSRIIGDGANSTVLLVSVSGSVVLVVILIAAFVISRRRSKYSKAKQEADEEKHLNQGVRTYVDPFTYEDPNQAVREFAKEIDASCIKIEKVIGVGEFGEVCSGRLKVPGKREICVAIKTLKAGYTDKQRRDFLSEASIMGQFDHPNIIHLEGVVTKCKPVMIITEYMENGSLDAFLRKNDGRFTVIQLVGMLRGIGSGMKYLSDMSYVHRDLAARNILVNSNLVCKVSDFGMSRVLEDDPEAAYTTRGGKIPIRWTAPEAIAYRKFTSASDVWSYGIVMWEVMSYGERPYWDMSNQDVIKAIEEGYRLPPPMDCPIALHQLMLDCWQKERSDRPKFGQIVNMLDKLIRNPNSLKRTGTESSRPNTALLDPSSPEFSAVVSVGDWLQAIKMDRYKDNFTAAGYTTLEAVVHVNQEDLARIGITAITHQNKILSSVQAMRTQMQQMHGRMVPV

[4] = target: T1, Interleukin-1 receptor-associated kinase 4 (Homo sapiens, UniProt Q9NWZ3)
T1 sequence (Q9NWZ3 whole entry): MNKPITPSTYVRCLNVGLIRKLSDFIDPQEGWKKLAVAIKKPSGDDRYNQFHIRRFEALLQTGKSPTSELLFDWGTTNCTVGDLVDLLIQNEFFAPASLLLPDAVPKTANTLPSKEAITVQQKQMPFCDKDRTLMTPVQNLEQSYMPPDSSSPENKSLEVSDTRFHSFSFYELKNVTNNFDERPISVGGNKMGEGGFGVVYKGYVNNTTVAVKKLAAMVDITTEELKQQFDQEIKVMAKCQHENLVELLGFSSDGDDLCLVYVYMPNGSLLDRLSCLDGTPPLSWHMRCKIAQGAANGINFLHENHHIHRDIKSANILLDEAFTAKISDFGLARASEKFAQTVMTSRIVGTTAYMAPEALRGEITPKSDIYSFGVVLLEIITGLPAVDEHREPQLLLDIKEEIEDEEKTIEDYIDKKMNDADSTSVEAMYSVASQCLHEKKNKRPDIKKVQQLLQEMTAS

[5] = target: Tyrosine-protein kinase SYK (Homo sapiens, UniProt P43405)
[6] = target: Platelet-derived growth factor receptor beta (Homo sapiens, UniProt P09619)
Chain of Platelet-derived growth factor receptor beta (P09619 whole entry): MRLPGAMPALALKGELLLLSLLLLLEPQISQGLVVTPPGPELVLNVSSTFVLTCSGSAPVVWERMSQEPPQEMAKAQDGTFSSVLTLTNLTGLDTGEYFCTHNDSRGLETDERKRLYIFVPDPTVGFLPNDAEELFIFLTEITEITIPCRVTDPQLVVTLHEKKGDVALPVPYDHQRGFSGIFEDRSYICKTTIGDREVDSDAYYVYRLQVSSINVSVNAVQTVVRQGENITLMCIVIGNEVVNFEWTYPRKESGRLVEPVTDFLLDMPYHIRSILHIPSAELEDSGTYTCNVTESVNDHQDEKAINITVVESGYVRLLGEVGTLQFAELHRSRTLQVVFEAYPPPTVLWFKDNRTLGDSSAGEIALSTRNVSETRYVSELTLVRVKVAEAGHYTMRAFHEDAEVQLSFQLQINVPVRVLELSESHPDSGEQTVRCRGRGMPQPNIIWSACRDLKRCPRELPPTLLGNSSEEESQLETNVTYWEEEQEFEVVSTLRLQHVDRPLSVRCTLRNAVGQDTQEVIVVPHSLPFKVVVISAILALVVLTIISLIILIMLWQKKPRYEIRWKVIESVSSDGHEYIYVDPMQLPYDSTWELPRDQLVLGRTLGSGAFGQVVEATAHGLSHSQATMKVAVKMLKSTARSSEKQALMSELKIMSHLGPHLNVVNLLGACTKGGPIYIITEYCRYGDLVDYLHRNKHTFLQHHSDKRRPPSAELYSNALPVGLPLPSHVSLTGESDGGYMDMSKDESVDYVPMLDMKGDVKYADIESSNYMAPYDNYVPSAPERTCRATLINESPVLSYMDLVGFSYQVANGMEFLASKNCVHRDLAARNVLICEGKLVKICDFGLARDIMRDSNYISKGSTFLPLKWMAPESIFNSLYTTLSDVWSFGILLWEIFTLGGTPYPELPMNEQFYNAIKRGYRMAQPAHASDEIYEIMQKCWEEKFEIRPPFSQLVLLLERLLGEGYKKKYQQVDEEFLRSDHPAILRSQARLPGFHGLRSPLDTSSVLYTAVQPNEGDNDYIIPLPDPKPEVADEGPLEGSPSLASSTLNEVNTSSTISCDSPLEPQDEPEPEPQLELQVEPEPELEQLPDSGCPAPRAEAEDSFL

[7] = target: T2, Serine/threonine-protein kinase Chk1 (Homo sapiens, UniProt O14757)
T2 sequence (O14757 whole entry): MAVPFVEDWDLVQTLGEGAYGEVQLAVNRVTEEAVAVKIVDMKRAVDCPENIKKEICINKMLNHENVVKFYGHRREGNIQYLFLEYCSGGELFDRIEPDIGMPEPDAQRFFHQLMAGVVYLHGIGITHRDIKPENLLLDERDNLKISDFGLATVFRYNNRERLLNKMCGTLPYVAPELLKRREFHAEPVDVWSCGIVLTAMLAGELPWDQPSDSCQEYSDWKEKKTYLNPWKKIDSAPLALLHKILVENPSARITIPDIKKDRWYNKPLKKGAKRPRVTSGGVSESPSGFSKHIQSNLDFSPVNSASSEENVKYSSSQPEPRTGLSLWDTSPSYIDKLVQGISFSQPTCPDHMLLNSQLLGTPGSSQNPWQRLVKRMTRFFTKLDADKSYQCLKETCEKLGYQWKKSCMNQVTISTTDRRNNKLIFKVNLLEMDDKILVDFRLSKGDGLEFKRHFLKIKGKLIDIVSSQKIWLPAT

[8] = target: Tyrosine-protein kinase ABL1 (Homo sapiens, UniProt P00519)
Chain of Tyrosine-protein kinase ABL1 (P00519 whole entry): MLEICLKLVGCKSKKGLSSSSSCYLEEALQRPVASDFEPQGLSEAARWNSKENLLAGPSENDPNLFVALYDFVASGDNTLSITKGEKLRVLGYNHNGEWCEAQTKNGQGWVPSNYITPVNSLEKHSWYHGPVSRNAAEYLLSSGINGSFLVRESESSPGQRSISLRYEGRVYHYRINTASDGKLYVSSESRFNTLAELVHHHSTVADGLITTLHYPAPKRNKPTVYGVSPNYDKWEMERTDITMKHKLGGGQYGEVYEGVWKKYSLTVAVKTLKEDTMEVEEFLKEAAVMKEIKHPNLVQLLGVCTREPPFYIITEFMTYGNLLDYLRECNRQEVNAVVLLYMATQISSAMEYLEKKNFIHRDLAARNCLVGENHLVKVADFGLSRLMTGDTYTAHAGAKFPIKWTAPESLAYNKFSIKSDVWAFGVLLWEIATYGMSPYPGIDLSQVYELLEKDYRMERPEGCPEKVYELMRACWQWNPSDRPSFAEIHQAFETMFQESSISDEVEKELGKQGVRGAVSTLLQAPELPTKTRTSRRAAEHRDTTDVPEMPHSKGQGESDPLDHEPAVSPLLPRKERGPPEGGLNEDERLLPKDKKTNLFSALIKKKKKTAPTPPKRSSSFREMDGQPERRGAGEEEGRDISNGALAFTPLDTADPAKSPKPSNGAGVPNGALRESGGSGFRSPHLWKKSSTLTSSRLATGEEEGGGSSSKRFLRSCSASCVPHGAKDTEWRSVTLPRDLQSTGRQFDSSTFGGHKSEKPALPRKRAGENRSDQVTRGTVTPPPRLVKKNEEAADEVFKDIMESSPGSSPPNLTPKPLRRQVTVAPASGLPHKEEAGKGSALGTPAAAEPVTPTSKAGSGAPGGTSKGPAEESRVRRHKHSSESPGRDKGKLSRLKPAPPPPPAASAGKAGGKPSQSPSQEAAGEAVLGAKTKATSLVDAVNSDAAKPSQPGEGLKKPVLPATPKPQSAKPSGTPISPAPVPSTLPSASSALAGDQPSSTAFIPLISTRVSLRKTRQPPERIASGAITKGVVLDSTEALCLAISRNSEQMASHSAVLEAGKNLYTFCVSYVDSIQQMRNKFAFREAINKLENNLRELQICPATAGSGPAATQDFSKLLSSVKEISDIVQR

[9] = target: T3, Serine/threonine-protein kinase Nek1 (Homo sapiens, UniProt Q96PY6)
T3 sequence (Q96PY6 whole entry): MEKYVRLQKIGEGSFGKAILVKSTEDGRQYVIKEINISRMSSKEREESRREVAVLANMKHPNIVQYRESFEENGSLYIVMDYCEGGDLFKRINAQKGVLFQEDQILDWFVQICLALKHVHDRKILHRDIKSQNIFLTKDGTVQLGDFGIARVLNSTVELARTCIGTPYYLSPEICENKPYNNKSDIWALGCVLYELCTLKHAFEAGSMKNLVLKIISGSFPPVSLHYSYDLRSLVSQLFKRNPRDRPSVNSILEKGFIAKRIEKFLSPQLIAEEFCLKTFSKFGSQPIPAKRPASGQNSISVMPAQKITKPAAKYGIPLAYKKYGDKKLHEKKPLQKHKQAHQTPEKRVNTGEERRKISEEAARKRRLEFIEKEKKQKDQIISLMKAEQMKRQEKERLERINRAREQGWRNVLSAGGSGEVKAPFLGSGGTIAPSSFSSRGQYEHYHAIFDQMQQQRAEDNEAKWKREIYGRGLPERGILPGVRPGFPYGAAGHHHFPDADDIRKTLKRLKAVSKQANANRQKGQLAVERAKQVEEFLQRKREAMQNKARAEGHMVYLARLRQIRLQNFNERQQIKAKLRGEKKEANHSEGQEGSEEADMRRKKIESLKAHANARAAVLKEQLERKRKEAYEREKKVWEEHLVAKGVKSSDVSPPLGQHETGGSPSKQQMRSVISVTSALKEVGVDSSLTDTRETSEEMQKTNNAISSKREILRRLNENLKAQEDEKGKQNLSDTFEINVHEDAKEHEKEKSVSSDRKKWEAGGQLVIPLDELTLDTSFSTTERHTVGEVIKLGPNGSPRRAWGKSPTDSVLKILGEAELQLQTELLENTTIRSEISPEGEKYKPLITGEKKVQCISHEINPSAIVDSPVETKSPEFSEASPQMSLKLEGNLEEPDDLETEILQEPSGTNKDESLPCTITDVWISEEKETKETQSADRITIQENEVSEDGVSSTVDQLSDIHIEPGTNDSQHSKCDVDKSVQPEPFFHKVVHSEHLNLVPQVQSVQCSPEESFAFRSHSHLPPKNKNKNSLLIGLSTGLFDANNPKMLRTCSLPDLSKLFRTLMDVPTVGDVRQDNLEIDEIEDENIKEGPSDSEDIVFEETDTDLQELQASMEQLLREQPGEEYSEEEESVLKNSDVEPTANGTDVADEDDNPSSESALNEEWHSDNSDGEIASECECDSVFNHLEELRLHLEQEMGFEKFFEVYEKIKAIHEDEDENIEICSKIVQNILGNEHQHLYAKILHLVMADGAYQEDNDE

[10] = target: Serine/threonine-protein kinase pim-1 (Homo sapiens, UniProt P11309)
Chain of Serine/threonine-protein kinase pim-1 (P11309 whole entry): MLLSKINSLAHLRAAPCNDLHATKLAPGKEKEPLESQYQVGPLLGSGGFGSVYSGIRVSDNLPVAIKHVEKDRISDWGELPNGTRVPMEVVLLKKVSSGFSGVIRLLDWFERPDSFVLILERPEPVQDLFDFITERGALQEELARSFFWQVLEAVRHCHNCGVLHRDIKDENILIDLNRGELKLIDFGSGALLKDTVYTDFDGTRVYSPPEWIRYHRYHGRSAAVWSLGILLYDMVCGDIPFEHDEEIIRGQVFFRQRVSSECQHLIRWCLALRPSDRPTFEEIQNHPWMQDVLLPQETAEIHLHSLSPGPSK
Also: in the data inactive means no Kd found up to 30 µM.

Chain of Serine/threonine-protein kinase B-raf (P15056 whole entry): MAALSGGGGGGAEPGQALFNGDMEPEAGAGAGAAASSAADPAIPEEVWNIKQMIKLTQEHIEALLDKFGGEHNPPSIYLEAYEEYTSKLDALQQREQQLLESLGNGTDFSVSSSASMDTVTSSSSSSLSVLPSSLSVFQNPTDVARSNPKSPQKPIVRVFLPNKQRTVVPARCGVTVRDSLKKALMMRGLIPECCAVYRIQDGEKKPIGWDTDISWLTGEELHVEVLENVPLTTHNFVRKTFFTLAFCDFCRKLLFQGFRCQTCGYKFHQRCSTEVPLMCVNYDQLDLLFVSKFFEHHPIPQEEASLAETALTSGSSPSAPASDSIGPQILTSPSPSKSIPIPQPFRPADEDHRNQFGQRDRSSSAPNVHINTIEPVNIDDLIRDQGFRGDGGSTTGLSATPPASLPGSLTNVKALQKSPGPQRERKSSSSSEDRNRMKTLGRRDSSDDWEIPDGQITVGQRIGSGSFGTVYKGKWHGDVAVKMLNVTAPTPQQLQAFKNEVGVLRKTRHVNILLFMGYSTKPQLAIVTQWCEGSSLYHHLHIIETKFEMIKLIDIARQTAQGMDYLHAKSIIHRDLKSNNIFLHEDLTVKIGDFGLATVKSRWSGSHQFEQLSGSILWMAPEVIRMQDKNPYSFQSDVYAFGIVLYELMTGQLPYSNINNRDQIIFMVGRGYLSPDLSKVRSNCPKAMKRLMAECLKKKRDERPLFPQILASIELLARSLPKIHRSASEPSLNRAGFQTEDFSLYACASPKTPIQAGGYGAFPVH
Chain of Cyclin-dependent kinase 3 (Q00526 whole entry): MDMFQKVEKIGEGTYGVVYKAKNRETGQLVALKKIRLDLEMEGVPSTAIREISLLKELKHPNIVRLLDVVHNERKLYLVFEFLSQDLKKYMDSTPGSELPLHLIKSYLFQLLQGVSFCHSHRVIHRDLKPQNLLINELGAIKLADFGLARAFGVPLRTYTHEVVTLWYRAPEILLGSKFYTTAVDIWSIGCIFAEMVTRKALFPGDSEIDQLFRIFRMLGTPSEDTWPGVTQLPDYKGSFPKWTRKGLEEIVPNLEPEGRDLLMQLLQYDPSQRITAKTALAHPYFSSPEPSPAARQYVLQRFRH

SMILES: CCn1c(=O)c(-c2cc[nH]n2)cc2c(C)nc(N)nc21 [VOXTALISIB]
- Kd [1]: > 30 µM (inactive)
- Kd [2]: > 30 µM (inactive)
- Kd [3]: > 30 µM (inactive)
- Kd (Ephrin type-A receptor 4): > 30 µM (inactive)
- Kd [4]: > 30 µM (inactive)
- Kd [5]: > 30 µM (inactive)
- Kd [6]: > 30 µM (inactive)
- Kd [7]: > 30 µM (inactive)
- Kd [8]: > 30 µM (inactive)
- Kd [9]: > 30 µM (inactive)
- Kd [10]: > 30 µM (inactive)

SMILES: Cc1ccc(NC(=O)c2ccc(CN3CC[C@H](N(C)C)C3)c(C(F)(F)F)c2)cc1Nc1nccc(-c2cncnc2)n1 [BAFETINIB]
- Kd [1]: > 30 µM (inactive)
- Kd [2]: 1.14 µM (active)
- Kd [3]: > 30 µM (inactive)
- Kd (Ephrin type-A receptor 4): 1.98 µM (active)
- Kd [4]: > 30 µM (inactive)
- Kd [5]: > 30 µM (inactive)
- Kd [6]: 3.13 µM (active)
- Kd [7]: > 30 µM (inactive)
- Kd [8]: 0.026 µM (active)
- Kd [9]: > 30 µM (inactive)
- Kd [10]: > 30 µM (inactive)

SMILES: COc1ccc(-c2ccc3c(N4CCOC[C@@H]4C)nc(N4CCOC[C@@H]4C)nc3n2)cc1CO [AZD-8055]
- Kd [1]: > 30 µM (inactive)
- Kd [2]: > 30 µM (inactive)
- Kd [3]: > 30 µM (inactive)
- Kd (Ephrin type-A receptor 4): > 30 µM (inactive)
- Kd [4]: > 30 µM (inactive)
- Kd [5]: > 30 µM (inactive)
- Kd [6]: > 30 µM (inactive)
- Kd [7]: > 30 µM (inactive)
- Kd [8]: > 30 µM (inactive)
- Kd [9]: > 30 µM (inactive)
- Kd [10]: > 30 µM (inactive)

SMILES: Cn1cc(-c2ccc(F)c(C(F)(F)F)c2)nc1C1CCN(c2ncnc3[nH]ncc23)CC1 [LY-2584702]
- Kd [1]: > 30 µM (inactive)
- Kd [2]: > 30 µM (inactive)
- Kd [3]: > 30 µM (inactive)
- Kd (Ephrin type-A receptor 4): > 30 µM (inactive)
- Kd [4]: > 30 µM (inactive)
- Kd [5]: > 30 µM (inactive)
- Kd [6]: > 30 µM (inactive)
- Kd [7]: > 30 µM (inactive)
- Kd [8]: > 30 µM (inactive)
- Kd [9]: > 30 µM (inactive)
- Kd [10]: > 30 µM (inactive)

SMILES: CNC(=O)CN1CCC(Oc2cc3c(Nc4cccc(Cl)c4F)ncnc3cc2OC)CC1 [SAPITINIB]
- Kd [1]: > 30 µM (inactive)
- Kd [2]: > 30 µM (inactive)
- Kd [3]: > 30 µM (inactive)
- Kd (Ephrin type-A receptor 4): 7.4 µM (active)
- Kd [4]: > 30 µM (inactive)
- Kd [5]: > 30 µM (inactive)
- Kd [6]: > 30 µM (inactive)
- Kd [7]: > 30 µM (inactive)
- Kd [8]: > 30 µM (inactive)
- Kd [9]: > 30 µM (inactive)
- Kd [10]: > 30 µM (inactive)

SMILES: CNC(=O)c1ccc(C)c(-n2c(C)cc(OCc3ccc(F)cc3F)c(Br)c2=O)c1 [PH-797804]
- Kd [1]: > 30 µM (inactive)
- Kd [2]: > 30 µM (inactive)
- Kd [3]: > 30 µM (inactive)
- Kd (Ephrin type-A receptor 4): > 30 µM (inactive)
- Kd [4]: > 30 µM (inactive)
- Kd [5]: > 30 µM (inactive)
- Kd [6]: > 30 µM (inactive)
- Kd [7]: > 30 µM (inactive)
- Kd [8]: > 30 µM (inactive)
- Kd [9]: > 30 µM (inactive)
- Kd [10]: > 30 µM (inactive)

SMILES: COCCNCc1ccc(-c2cc3nccc(Oc4ccc(NC(=S)NC(=O)Cc5ccc(F)cc5)cc4F)c3s2)nc1 [GLESATINIB]
- Kd [1]: > 30 µM (inactive)
- Kd [2]: > 30 µM (inactive)
- Kd [3]: > 30 µM (inactive)
- Kd (Ephrin type-A receptor 4): > 30 µM (inactive)
- Kd [4]: > 30 µM (inactive)
- Kd [5]: 2.68 µM (active)
- Kd [6]: 2.78 µM (active)
- Kd [7]: > 30 µM (inactive)
- Kd [8]: 0.241 µM (active)
- Kd [9]: > 30 µM (inactive)
- Kd [10]: > 30 µM (inactive)
